This is an account of results in PMC6271978, “1H-2,3-Dihydroperimidine Derivatives: A New Class of Potent Protein Tyrosine Phosphatase 1B Inhibitors” (Molecules, 2013).

For one series, the target named is T1, PTP1B (GST-PTP1B) (Homo sapiens, UniProt P18031).
T1 sequence (P18031 1-435): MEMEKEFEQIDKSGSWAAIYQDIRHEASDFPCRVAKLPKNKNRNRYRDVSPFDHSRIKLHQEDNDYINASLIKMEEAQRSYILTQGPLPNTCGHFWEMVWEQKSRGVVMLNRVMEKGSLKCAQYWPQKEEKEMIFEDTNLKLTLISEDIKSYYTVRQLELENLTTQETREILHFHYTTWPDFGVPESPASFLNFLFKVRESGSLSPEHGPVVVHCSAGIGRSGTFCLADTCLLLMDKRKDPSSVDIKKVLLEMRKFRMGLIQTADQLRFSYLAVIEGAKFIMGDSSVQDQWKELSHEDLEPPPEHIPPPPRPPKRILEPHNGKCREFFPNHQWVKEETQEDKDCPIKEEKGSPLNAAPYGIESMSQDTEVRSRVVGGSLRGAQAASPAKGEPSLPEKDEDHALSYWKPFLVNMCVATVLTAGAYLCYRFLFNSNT
As to the kind of experiment: PTP1B inhibition, colorimetric pNPP assay. The following applies: for inhibition at 20 µg/mL: PTP1B, compound at 20 μg/mL; for inhibition at 20 µg/mL / IC50: pNPP substrate; for PTP1B inhibitory activity (in words): pNPP assay, tested at 20 μg/mL; for IC50: means ± SD of three replications, OA/PC = oleanolic acid positive control. In kind it is biochemical.

Each structure is given as a SMILES string.

For the molecule `Nc1ccc(C2Nc3cccc4cccc(c34)N2)cc1` [Compound 8], the melting point lay in the range of 166.4 to 171.9 °C. This molecule displayed an inhibition at 20 µg/mL against PTP1B (GST-PTP1B) of 23.8%.

Take `O=C(O)CCCCOc1ccc(C2Nc3cccc4cccc(c34)N2)cc1` [Compound 25, 5-[4-(2,3-Dihydro-1H-perimidin-2-yl)phenoxy]pentanoic acid]: the melting point lay within 165.9 to 167.8 °C. At PTP1B (GST-PTP1B), 20 µg/mL produced 32.1% inhibition and the “PTP1B inhibitory activity (in words)” value is given as “no inhibitory activity”.

For the molecule `CCOC(=O)CCCOc1ccc(C2Nc3cccc4cccc(c34)N2)cc1` [Compound 21], the melting point fell in the range of 76.2 to 78.6 °C. For the same molecule, on PTP1B (GST-PTP1B), the inhibition at 20 µg/mL came to 7.45% and the “PTP1B inhibitory activity (in words)” value is on record as “did not show inhibitory activity”.

In turn, `COC(=O)c1ccc(C2Nc3cccc4cccc(c34)N2)nc1` [Compound 40] showed an inhibition at 20 µg/mL against PTP1B (GST-PTP1B) of 6.4%.

Turning to `CCOC(=O)CCCC(=O)Nc1ccc(C2Nc3cccc4cccc(c34)N2)cc1` [Compound 29, Ethyl 5-{[4-(2,3-dihydro-1H-perimidin-2-yl]phenyl)amino}-5-oxopentanoate], the melting point was in the range of 139.9 to 142.5 °C. This molecule showed an inhibition at 20 µg/mL against PTP1B (GST-PTP1B) of 2.92%.

Regarding `O=C(O)CCCNC(=O)c1ccc(C2Nc3cccc4cccc(c34)N2)cc1` [Compound 17, 4-(4-(2,3-Dihydro-1H-perimidin-2-yl)benzamido)butanoic acid], the melting point lay within 99.7 to 103.3 °C. Further, at PTP1B (GST-PTP1B), the inhibition at 20 µg/mL amounted to 73.1% and the IC50 was 22.2 ± 1.6 µM.

As to `O=C(O)C1CCCN1C(=O)c1ccc(C2Nc3cccc4cccc(c34)N2)cc1` (centres unmarked) [Compound 15, 1-(4-(2,3-Dihydro-1H-perimidin-2-yl)benzoyl)pyrrolidine-2-carboxylic acid], the melting point lay within 233.1 to 234.3 °C. Further, on PTP1B (GST-PTP1B), the inhibition at 20 µg/mL turned out to be 84.2% and half-maximal inhibition (IC50) was put at 20.2 ± 1.94 µM.

The molecule `CCOC(=O)CCCCOc1ccc(C2Nc3cccc4cccc(c34)N2)cc1` [Compound 22, Ethyl 5-[4-(2,3-dihydro-1H-perimidin-2-yl)phenoxy]pentanoate] yielded a melting point of 93.8 to 96.4 °C. Besides, on PTP1B (GST-PTP1B), 20 µg/mL produced 2.04% inhibition and the “PTP1B inhibitory activity (in words)” value was “did not show inhibitory activity”.

Molecule `O=C(O)CC(=O)Nc1ccc(C2Nc3cccc4cccc(c34)N2)cc1` [Compound 31, 3-{[4-(2,3-Dihydro-1H-perimidin-2-yl)phenyl]amino}-3-oxopropanoic acid] came in with a melting point of 221.3 to 223.4 °C. Moreover, on PTP1B (GST-PTP1B), at 20 µg/mL the inhibition was 96.8% and the IC50 is 6.45 ± 0.42 µM.

Regarding `CCOC(=O)CCCCCNC(=O)c1ccc(C2Nc3cccc4cccc(c34)N2)cc1` [Compound 14, Ethyl 6-(4-(2,3-dihydro-1H-perimidin-2-yl)benzamido)hexanoate], the melting point is 145.8 to 147.4 °C. The molecule also displayed an inhibition at 20 µg/mL against PTP1B (GST-PTP1B) of 35.6%.

Consider `O=C(O)CCC(=O)Nc1ccc(C2Nc3cccc4cccc(c34)N2)cc1` [Compound 32], for which, at PTP1B (GST-PTP1B), the inhibition at 20 µg/mL was determined as 29.9% and the “PTP1B inhibitory activity (in words)” value is “no activity”.

`CCOC(=O)CCCCNC(=O)c1ccc(C2Nc3cccc4cccc(c34)N2)cc1` [Compound 13, Ethyl 5-(4-(2,3-dihydro-1H-perimidin-2-yl)benzamido)pentanoate] registered a melting point of 141.8 to 143.1 °C. The same molecule yielded an inhibition at 20 µg/mL against PTP1B (GST-PTP1B) of 28.5%.

In turn, `COC(=O)c1ccc(C2Nc3cccc4cccc(c34)N2)cc1` [Compound 9] yielded an inhibition at 20 µg/mL at PTP1B (GST-PTP1B) of 15.3%.

In the case of `Brc1ccc(C2Nc3cccc4cccc(c34)N2)cc1` [Compound 2], on PTP1B (GST-PTP1B), at 20 µg/mL the inhibition was 37%.

Molecule `COC(=O)CNC(=O)c1ccc(C2Nc3cccc4cccc(c34)N2)cc1` [Compound 11] yielded a melting point of 193.3 to 198.7 °C. On PTP1B (GST-PTP1B), this molecule displayed an inhibition at 20 µg/mL of 4.81%.

With `COC(=O)CNC(=O)c1ccc(C2Nc3cccc4cccc(c34)N2)nc1` [Compound 42], the melting point lay within 183.6 to 184.7 °C. In addition, at PTP1B (GST-PTP1B), the inhibition at 20 µg/mL worked out at 42.1%.

In turn, `CCOC(=O)C(=O)Nc1ccc(C2Nc3cccc4cccc(c34)N2)cc1` [Compound 26, Ethyl 2-{[4-(2,3-dihydro-1H-perimidin-2-yl)phenyl]amino}-2-oxoacetate] had a melting point of 132.3 to 135.5 °C. At PTP1B (GST-PTP1B), this molecule returned an inhibition at 20 µg/mL of 91.8% and a concentration for half-maximal inhibition (IC50) of 1.27 ± 0.06 µM.

Consider `Oc1ccc(C2Nc3cccc4cccc(c34)N2)cc1` [Compound 5, 4-(2,3-Dihydro-1H-perimidin-2-yl)phenol], for which at 20 µg/mL the inhibition at PTP1B (GST-PTP1B) was 7.18%.

On to `NCCC(=O)Nc1ccc(C2Nc3cccc4cccc(c34)N2)cc1` [Compound 35], for which the melting point is 239.7 to 241.2 °C. Further, at PTP1B (GST-PTP1B), the inhibition at 20 µg/mL worked out at 0.29% and the “PTP1B inhibitory activity (in words)” value was “no inhibitory activity”.

In turn, `N#Cc1cc(C2Nc3cccc4cccc(c34)N2)ccc1F` [Compound 6, 5-(2,3-Dihydro-1H-perimidin-2-yl)-2-fluorobenzonitrile] gave a melting point of 204.4 to 208.4 °C. For the same molecule, on PTP1B (GST-PTP1B), the inhibition at 20 µg/mL came out at 31.6%.

On to `Brc1cccc(C2Nc3cccc4cccc(c34)N2)c1` [Compound 3, 2-(3-Bromophenyl)-2,3-dihydro-1H-perimidine], for which the melting point is 161.7 to 163.3 °C. Besides, at 20 µg/mL the inhibition against PTP1B (GST-PTP1B) was 42.5%.

`CCOC(=O)CCCCCNC(=O)c1ccc(C2Nc3cccc4cccc(c34)N2)nc1` [Compound 45, Ethyl 6-[6-(2,3-dihydro-1H-perimidin-2-yl)nicotinamido]hexanoate] came in with a melting point of 119.3 to 123.8 °C. 20 µg/mL produced 10.8% inhibition against PTP1B (GST-PTP1B).

`O=C(O)C(=O)Nc1ccc(C2Nc3cccc4cccc(c34)N2)cc1` [Compound 30, 2-{[4-(2,3-Dihydro-1H-perimidin-2-yl)phenyl]amino}-2-oxoacetic acid] gave a melting point above 265 °C. Moreover, at PTP1B (GST-PTP1B), the inhibition at 20 µg/mL is 0.51% and the “PTP1B inhibitory activity (in words)” value was “no activity”.

In the case of `CC(C)(C)OC(=O)NCCC(=O)Nc1ccc(C2Nc3cccc4cccc(c34)N2)cc1` [Compound 34], the melting point was in the range of 111.1 to 113.7 °C. Besides, on PTP1B (GST-PTP1B), the inhibition at 20 µg/mL amounted to 12.6% and the “PTP1B inhibitory activity (in words)” value was “no inhibitory activity”.

For the molecule `CCOC(=O)CC(=O)Nc1ccc(C2Nc3cccc4cccc(c34)N2)cc1` [Compound 27, Ethyl 3-{[4-(2,3-dihydro-1H-perimidin-2-yl)phenyl]amino}-3-oxopropanoate], the melting point is 158.2 to 160.7 °C. The molecule further came in with an inhibition at 20 µg/mL at PTP1B (GST-PTP1B) of 1.68%.

On to `O=C(O)CCCOc1ccc(C2Nc3cccc4cccc(c34)N2)cc1` [Compound 24], for which the melting point fell in the range of 126.3 to 130.9 °C. On PTP1B (GST-PTP1B), the inhibition at 20 µg/mL came to 10.5% and the “PTP1B inhibitory activity (in words)” value is “no inhibitory activity”.

`O=C(O)CNC(=O)c1ccc(C2Nc3cccc4cccc(c34)N2)cc1` [Compound 16] showed a melting point of 85.4 to 90.3 °C. At PTP1B (GST-PTP1B), this molecule came in with an inhibition at 20 µg/mL of 90% and an IC50 of 27.8 ± 5.45 µM.

With `COC(=O)C1CCCN1C(=O)c1ccc(C2Nc3cccc4cccc(c34)N2)cc1` (centres unmarked) [Compound 10, Methyl 1-(4-(2,3-dihydro-1H-perimidin-2-yl)benzoyl)pyrrolidine-2-carboxylate], the melting point is 171.3 to 176 °C. Besides, the inhibition at 20 µg/mL against PTP1B (GST-PTP1B) turned out to be 26.2%.

`CCOC(=O)CCC(=O)Nc1ccc(C2Nc3cccc4cccc(c34)N2)cc1` [Compound 28]: the melting point fell in the range of 165.8 to 170.9 °C. The molecule further came in with an inhibition at 20 µg/mL on PTP1B (GST-PTP1B) of 29.7%.

With `O=C(O)CCCNC(=O)c1ccc(C2Nc3cccc4cccc(c34)N2)nc1` [Compound 47, 4-[6-(2,3-Dihydro-1H-perimidin-2-yl)nicotinamido]butanoic acid], the melting point was in the range of 95.3 to 99 °C. On PTP1B (GST-PTP1B), this molecule gave an inhibition at 20 µg/mL of 98.5% and an IC50 of 15.2 ± 1.41 µM.

As to `O=C(O)CCCCNC(=O)c1ccc(C2Nc3cccc4cccc(c34)N2)cc1` [Compound 18, 5-(4-(2,3-Dihydro-1H-perimidin-2-yl)benzamido)pentanoic acid], the melting point lay within 102.8 to 107.4 °C. For the same molecule, at PTP1B (GST-PTP1B), 20 µg/mL produced 94.8% inhibition and it took 5.53 ± 0.54 µM to reach half-maximal inhibition (IC50).

In turn, `CCOC(=O)CCCCNC(=O)c1ccc(C2Nc3cccc4cccc(c34)N2)nc1` [Compound 44, Ethyl 5-[6-(2,3-dihydro-1H-perimidin-2-yl)nicotinamido]pentanoate] gave a melting point of 109.4 to 113.5 °C. Also, at 20 µg/mL the inhibition on PTP1B (GST-PTP1B) was 4.74%.

`O=C(O)CCCC(=O)Nc1ccc(C2Nc3cccc4cccc(c34)N2)cc1` [Compound 33, 5-{[4-(2,3-Dihydro-1H-perimidin-2-yl)phenyl]amino}-5-oxopentanoic acid] came in with a melting point above 265 °C. Further, at PTP1B (GST-PTP1B), the inhibition at 20 µg/mL worked out at 95.1% and the IC50 was found to be 6.91 ± 1.17 µM.

Regarding `Brc1ccccc1C1Nc2cccc3cccc(c23)N1` [Compound 4, 2-(2-Bromophenyl)-2,3-dihydro-1H-perimidine], the inhibition at 20 µg/mL on PTP1B (GST-PTP1B) worked out at 17.5%.

In the case of `CCOC(=O)CCCNC(=O)c1ccc(C2Nc3cccc4cccc(c34)N2)cc1` [Compound 12, Ethyl 4-(4-(2,3-dihydro-1H-perimidin-2-yl)benzamido)butanoate], the melting point fell in the range of 128.6 to 132.5 °C. This molecule also showed an inhibition at 20 µg/mL at PTP1B (GST-PTP1B) of 6.83%.

In the case of `O=C(O)CCCCCNC(=O)c1ccc(C2Nc3cccc4cccc(c34)N2)cc1` [Compound 19, 6-(4-(2,3-Dihydro-1H-perimidin-2-yl)benzamido)hexanoic acid], the melting point is 90.8 to 91.9 °C. Besides, at PTP1B (GST-PTP1B), 20 µg/mL produced 95.3% inhibition and half-maximal inhibition (IC50) required 7.82 ± 0.27 µM.
